Test results from patent US7423181B2, “Aminoalkoxy-functional chalcones” (Lica Pharmaceuticals A/S, priority 2002, dated 2008).
In brackets after ≈: the same amount, converted by molar mass. Where two headings read alike, the source gives them in different places.

Legend:
S.aureus ATCC33591 = settings: time-kill curve FIG. 2, S.aureus ATCC33591
[1] = tested on: Staphylococcus aureus ATCC29213; test: MIC determination in broth microdilution assay; settings: A: Staphylococcus aureus ATCC29213
[2] = tested on: Staphylococcus aureus ATCC33591(resistant to methicillin); test: MIC determination in broth microdilution assay; settings: B: Staphylococcus aureus ATCC33591(resistant to methicillin)
[3] = tested on: Enterococcus faecalis ATCC29212; test: MIC determination in broth microdilution assay; settings: D: Enterococcus faecalis ATCC29212
[4] = tested on: Enterococcus faecium #17501 (vancomycin-resistant clinical isolate); test: MIC determination in broth microdilution assay; settings: E: Enterococcus faecium #17501 (vancomycin-resistant)
[5] = tested on: Streptococcus pneumoniae #998 (clinical isolate); test: MIC determination in broth microdilution assay; settings: F: Streptococcus pneumoniae #998
Eschericia coli ESS = test: MIC determination in broth microdilution assay; settings: H: Eschericia coli ESS
[6] = tested on: panel of 10 different non-fastidious bacteria; test: Screening against panel of non-fastidious bacteria
[7] = tested on: Bacteroides fragilis, Clostridium perfringens, Clostridium difficele; assay type: cell-based; settings: single concentration of compound (100 μM)
[8] = tested on: dihydroorotate dehydrogenase (DHODH); test: DHODH assay; assay type: biochemical; settings: at 10 μM
Protocol: 100 μl chalcone or 0.1 M Tris-HCl pH 8.0 is added to a well in a 96-wells microtiter plate. Then 50 μl enzyme dilution is added. The microtiter plate is placed in the Powerwavex340 and the enzymatic reactions starts when adding 100 μl assay mixture. The reaction are measured every 20 sec. for 10 min. The samples with chalcones are compared with the samples with 0.1 M Tris-HCl pH 8.0 and the percent inhibition is calculated.
Enzyme dilution: The solution of recombinant purified enzyme is dissolved in 0.1 M Tris-HCl pH 8 to give an initial velocity of 0.04-0.05 ΔA/min.
2,6-dichlorophenolindophenol (DCIP)-stock solution: 40 mg DCIP and 10 ml 99% Ethanol are mixed for 10 min at RT. Then 100 μl 1.0 M Tris-HCl pH 8 and miliQ H2O are added to a final volume of 100 ml. The A600 of the DCIP-stock solution are measured in a microtiter plate on the Powerwavex340 (Bio-Tek instruments,Inc.)
[…]: 25 mM dihydroorotate stock-solution is prepared by first dissolving in the same amount of mol NaOH and then miliQ H2O is added to the final volume.
Assay mix (10 ml solution): 600 μl of DHODH-stock solution and X ml (depending on the A600 value of stock-solution) DCIP to a final A600=2.5 are mixed. Then 0.1 M Tris-HCl pH 8.0 are added to a final volume of 10 ml.
Preparation of compound soluton: A 10 mM stock-solution of compound (e.g. a chalcone derivative) is made in dimethylsulfoxid (DMSO). The compound is then diluted in 0.1 M Tris-HCl pH 8 to the test concentrations. The final DMSO concentration in the sample is 10%

S.aureus ATCC29213 = settings: time-kill curve FIG. 3, S.aureus ATCC29213
[9] = tested on: Plasmodium falciparum 3D7; test: Plasmodium falciparum assay; assay type: cell-based
Plasmodium berghei K173 = settings: NMRI female mice; for effect on development of the infection: multiple oral administrations, FIG. 7
Pharmacokinetic studies = assay type: in vivo, mice; settings: for bioavailability: in mice
Protocol: Samples of serum were taken at defined timepoints.
The supernatant was used for the analysis.
The flow rate was […], injection volume 10 μl.

[10] = tested on: panel of six strains Helicobacter pylori; test: MIC determination against Helicobacter pylori (agar dilution); settings: read-out: MICs against Helicobacter pylori
[11] = Determination of metabolic stability (liver microsomes); assay type: in vitro ADME; settings: rat liver microsomes, 20 μM, 15 min
Protocol: Determination of Metabolic Stability
Incubations were performed with Wistar rat liver microsomes (0.25 mg/ml) in 2% sodium bicarbonate solution. NADP (0.13 mg/ml), glucose-6-phosphate (0.63 mg/ml) and glucose-6-phosphate dehydrogenase (0.38 units/ml) were used as NADPH generation system and UDPGA (0.48 mg/ml) was added to include the phase II reaction, glucuronic acid conjugation, in the assay. After 5 minutes of pre-incubation the reaction was started by addition of the test article to give a final concentration of 20 μM. Samples were incubated for 15 min at 37° C. and the reactions were terminated by addition of equal volumes of acetonitrile. Blank incubations were performed at the same concentration but without addition of microsomes. Both blank and microsome-containing samples were made in replicats of three. Prior to analysis samples were centrifuged for 10 min. at 3500 rpm,HPLC system:
Initial conditions were 40% mobile phase A (acetonitrile) and 60% mobile phase B (10 mM ammonium acetate pH 9.5). During the first 20 minutes, the mobile phase was changed via a linear gradient to 90% A and 10% B. This was followed by a 5 minutes linear gradient to initial conditions, which were maintained for 5 min. The flow rate was 0.20 m)/min and injection volume 10 μl.

[12] = tested on: Plasmodium falciparum DD2(Cq-res); settings: read-out: Plasmodium falciparum IC50
[13] = tested on: Plasmodium falciparum 7G8(Cq-res); settings: read-out: Plasmodium falciparum IC50
[14] = tested on: Plasmodium falciparum K1(Cq-res); settings: read-out: Plasmodium falciparum IC50
[15] = mice
[16] = Determination of solubility; assay type: physicochemical; settings: reference chalcones
Protocol: Determination of Solubility
Solubility of the compounds was determined by preparing a saturated solution of compound in 0.3 M phosphate buffer (pH 7.4±0.3) in a brown glass tube. The suspensions were rotated slowly for 24 hours. Aliquots were centrifuged for 10 minutes at 14.000 rpm and supernatants were diluted in 40% (v/v) acetonitrile in water prior to HPLC analysis. Concentrations of analytes were quantified against a standard curve and used as term of solubility. The HPLC-UV method used for the assessment of solubility is the same as used in the in vitro metabolism assay.

[17] = tested on: parasitic or bacterial infections; test: In vivo potency of chalcones
P.yoelii and P.berghei = settings: cited from earlier work
[18] = tested on: cutaneous and visceral Leishmania infection; settings: cited from earlier work
[19] = Plasmodium falciparum 3D7 (Table 2), read-out: IC50

Which results are given for `COc1ccc(C(=O)/C=C/c2cc(-c3cc(C)cc(C)c3)ccc2OCCN(C)C)cc1` [Compound C023, (E)-3-[4-(2′-Dimethylamino-ethoxy)-3′,5′-dimethyl-biphenyl-3-yl]-1-(4-methoxy-phenyl)-propenone]?
MIC (S.aureus ATCC33591): 9.4 µM (≈ 4.04 µg/mL); bactericidal action (CFU counts per ml above the MIC) (S.aureus ATCC33591): bactericidal; MIC [1]: 4.7 µM (≈ 2.02 µg/mL); MIC [2]: 4.7 µM (≈ 2.02 µg/mL); MIC [3]: 4.7 µM (≈ 2.02 µg/mL); MIC [4]: 4.7 µM (≈ 2.02 µg/mL); MIC [5]: 18.8 µM (≈ 8.08 µg/mL); MIC (Eschericia coli ESS): 9.4 µM (≈ 4.04 µg/mL); potency against Gram-positive pathogens in comparison with Licochalcone A [6]: increased potency

With `COc1ccc(C(=O)/C=C/c2cc(-c3cc(C)cc(C)c3)ccc2OCCN(C)C)c(Cl)c1` [Compound C026, (E)-1-(2-Chloro-4-methoxy-phenyl)-3-[4-(2-dimethylamino-ethoxy)-3′,5′-dimethyl-biphenyl-3-yl]-propenone] as the compound, how does the “activity against anaerobic bacteria” value [7] read?
The value was “activity against all microorganisms within the test panel”.

What about the “Inhibition of DHODH” value [8] of the same compound?
The value was 19%.

Which “activity against anaerobic bacteria” value [7] does the source give for `COc1ccc(C(=O)/C=C/c2cc(C(C)(C)C)cc(C(C)(C)C)c2OCCN(C)C)c(F)c1` [Compound C028, (E)-3-[3,5-Di-tert-butyl-2-(2-dimethylamino-ethoxy)-phenyl]-1-(2-fluoro-4-methoxy-phenyl)-propenone] here?
The value was “activity against all microorganisms within the test panel”.

What about the “Inhibition of DHODH” value [8] of the same compound?
The value was 23%.

Which MIC (S.aureus ATCC29213) does the source give for `CCN(CC)Cc1ccccc1C(=O)/C=C/c1cc(-c2cc(C)cc(C)c2)ccc1OCCN(C)C` [Compound C030, (E)-1-(2-Diethylaminomethyl-phenyl)-3-[4-(2-dimethylamino-ethoxy)-3′,5′-dimethyl-biphenyl-3-yl]-propenone] here?
The MIC was 18.8 µM (≈ 9.11 µg/mL).

And the “bactericidal action (CFU counts per ml above the MIC)” value (S.aureus ATCC29213)?
Its value is “bactericidal”.

What about the “potency against Gram-positive pathogens in comparison with Licochalcone A” value [6] of the same compound?
The value was “increased potency”.

For `Cc1ccccc1-c1ccc(OCCN(C)C)c(/C=C/C(=O)c2ccccc2CN(C)C)c1` [Compound C035, (E)-3-[4-(2-Dimethylamino-ethoxy)-2′-methyl-biphenyl-3-yl]-1-(2-dimethylaminomethyl-phenyl)-propenone], which IC50 [9, 19] is on record?
Its IC50 is 100 nM.

And the effect on parasitaemia (Plasmodium berghei K173; multiple intra venous administrations, FIG. 6)?
The effect on parasitaemia was “significant decrease in the parasitaemia”.

With `COc1ccc(C(=O)/C=C/c2cccc(OCCN(C)C)c2)c(OC)c1OC` [Compound C043, (E)-3-[3-(2-Dimethylamino-ethoxy)-phenyl]-1-(2,3,4-trimethoxy-phenyl)-propenone] as the compound, how does the bioavailability (Pharmacokinetic studies) read?
Its bioavailability is 42%.

With `CC(=O)Nc1cccc(C(=O)/C=C/c2cc(-c3cc(C)cc(C)c3)ccc2OCCN(C)C)c1` [Compound C088, N-(3-{3-[4-(2-Dimethylamino-ethoxy)-3′,5′-dimethyl-biphenyl-3-yl]-(E)-acryloyl}-phenyl)-acetamide] as the compound, how does the MIC [10] read?
The MIC was 12 to 25 µM (≈ 5.48 to 11.4 µg/mL).

With `COc1ccc(C(=O)/C=C/c2cc(-c3ccccc3C)ccc2OCCN(C)C)c(CN(C)C)c1` [Compound C114, (E)-3-[4-(2-Dimethylamino-ethoxy)-2′-methyl-biphenyl-3-yl]-1-(2-imethylaminomethyl-4-methoxy-phenyl)-propenone] as the compound, how does the “effect on development of the infection” value (Plasmodium berghei K173) read?
The value was “inhibit the development of the infection”.

For `Cc1ccccc1-c1ccc(OCCN(C)C)c(/C=C/C(=O)c2ccccc2CN2CCCC2)c1` [Compound C119, (E)-3-[4-(2-Dimethylamino-ethoxy)-2′-methyl-biphenyl-3-yl]-1-(2-pyrrolidin-1-ylmethyl-phenyl)-propenone], which “effect on development of the infection” value (Plasmodium berghei K173) is on record?
The value was “inhibit the development of the infection”.

Which “effect on development of the infection” value (Plasmodium berghei K173) does the source give for `CN(C)CCOc1ccc(-c2ccccc2Cl)cc1/C=C/C(=O)c1ccccc1CN(C)C` [Compound C128, (E)-3-[2′-Chloro-4-(2-dimethylamino-ethoxy)-biphenyl-3-yl]-1-(2-dimethylaminomethyl-phenyl)-propenone] here?
The value was “inhibit the development of the infection”.

For `CN(C)CCOc1ccc(-c2ccccc2C(F)(F)F)cc1/C=C/C(=O)c1ccccc1CN(C)C` [Compound C130, (E)-3-[4-(2-Dimethylamino-ethoxy)-2′-trifluoromethyl-biphenyl-3-yl]-1-(2-dimethylaminomethyl-phenyl)-propenone], which IC50 ([9]; 3D7(Cq-sen) (Table 3), read-out: Plasmodium falciparum IC50) is on record?
Its IC50 is 30 nM.

And the IC50 [9, 19]?
The IC50 was 30 nM.

And the “times more potent than LicA” value ([9]; dose-response curve at Plasmodium falciparum, FIG. 4)?
Its value is 213 times.

What about the “Metabolic turn-over in vitro” value [11] of the same compound?
Its value is 6%.

And the IC50 [12]?
The IC50 was 60 nM.

And the IC50 [13]?
Its IC50 is 50 nM.

And the IC50 [14]?
The IC50 was 40 nM.

What about the Metabolic turn-over [15] of the same compound?
Its Metabolic turn-over is 77%.

And the “effect on development of the infection” value (Plasmodium berghei K173)?
Its value is “inhibit the development of the infection”.

Which “Inhibition of DHODH” value [8] does the source give for `C=CC(C)(C)c1cc(/C=C/C(=O)c2ccc(O)cc2)c(OC)cc1O` [LicA, Licochalcone A] here?
The value was 25%.

And the “Metabolic turn-over in vitro” value [11]?
Its value is 100%.

What about the “Metabolic turn-over in vitro” value ([11]; listed as Lica) of the same compound?
The value was 100%.

What about the aqueous solubility [16] of the same compound?
Its aqueous solubility is “approximately 0.01 mg/ml”.

And the bioavailability (Pharmacokinetic studies)?
The bioavailability was under 6%.

What about the t1/2 in vivo (Pharmacokinetic studies; in vivo) of the same compound?
Its t1/2 in vivo is 10 min.

What about the in vivo potency [17] of the same compound?
Its in vivo potency is 50 mg/kg.

And the “protection of mice from infection” value (P.yoelii and P.berghei)?
The value was “protects mice from infection with P.yoelii and P.berghei”.

What about the “efficacy in experimental animal models” value [18] of the same compound?
Its value is “efficacy in experimental animal models of cutaneous and visceral Leishmania infection”.

And the MIC [1]?
The MIC was 37.5 µM (≈ 12.7 µg/mL).

And the MIC [2]?
Its MIC is 37.5 µM (≈ 12.7 µg/mL).

What about the MIC [3] of the same compound?
Its MIC is 37.5 µM (≈ 12.7 µg/mL).

What about the MIC [4] of the same compound?
The MIC was 37.5 µM (≈ 12.7 µg/mL).

What about the MIC [5] of the same compound?
Its MIC is 75.0 µM (≈ 25.4 µg/mL).

What about the MIC (Eschericia coli ESS) of the same compound?
Its MIC is 300.0 µM (≈ 102 µg/mL).

And the “bactericidal activity against common pathogenic Gram-positive non-fastidious bacteria” value ([6]; Gram-positive bacteria)?
The value was “moderate bactericidal activity”.

And the “activity against Eschericia coli” value ([6]; prototype pathogenic Gram-negative bacterium)?
The value was “modest or no activity”.
